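Protocol summary: plate cells (96-well), add compound at 5 concentrations, incubate 48 h, interpolate endpoints linearly. The concentration for 50% growth inhibition is given as GI50. TGI is the concentration that stops growth completely.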
Assays:
Assay in all cases: NCI tumour cell line growth inhibition, 48 h
[1] = system: OVCAR-3 ovarian
[2] = system: SF-268 CNS
[3] = system: HL-60(TB) leukemia
[4] = system: OVCAR-4 ovarian
[5] = system: SK-MEL-5 melanoma
[6] = system: COLO 205 colon
[7] = system: UO-31 renal
[8] = system: CCRF-CEM leukemia
[9] = system: KM12 colon
[10] = system: SR leukemia

Compound | GI50 [1] | TGI [1] | GI50 [2] | TGI [2] | GI50 [3] | TGI [3] | GI50 [4] | TGI [4] | GI50 [5] | TGI [5] | GI50 [6] | TGI [6] | GI50 [7] | TGI [7] | GI50 [8] | TGI [8] | GI50 [9] | TGI [9] | GI50 [10] | TGI [10]
CCCCNC(=O)Oc1ccc2c(=O)c3sc4c(=O)c5ccccc5c(=O)c4c3c(=O)c2c1 | 0.299 µM | 0.977 µM | 1.1 µM | 3.56 µM | 3.11 µM | > 100 µM | 0.977 µM | 2.15 µM | 0.103 µM | 0.224 µM | 1.81 µM | 3.5 µM | 0.699 µM | 2.66 µM | 2 µM | 6.83 µM | 2 µM | 9.21 µM | 0.77 µM | > 100 µM
N#C/C(=C/C=C/c1ccccc1)S(=O)c1ccccc1 (stereo not drawn) | 0.307 µM | 1.13 µM | 0.392 µM | 1.94 µM | 0.288 µM | 2.25 µM | 0.329 µM | 2.27 µM | 1.65 µM | 3.05 µM | 0.482 µM | 2.07 µM | 0.4 µM | 3.08 µM | 0.341 µM | 1.59 µM | 0.594 µM | 2.17 µM | 0.281 µM | 4.51 µM
CCCCCCCC(=O)OCC1OC(n2cc(F)c(=O)[nH]c2=O)C(NC(=O)OCc2ccccc2)C(OC(=O)CCCCCCC)C1O (stereo not drawn) |  | 47.7 µM |  | > 100 µM |  | 40.8 µM |  | 83 µM |  | 11.1 µM |  | 68.3 µM |  | 0.865 µM |  | 66.1 µM |  | > 100 µM |  | 64 µM
O=C(COc1ccc(Cl)cc1)N1N=C(c2ccc([N+](=O)[O-])o2)CC1(O)c1ccccc1 (stereo not drawn) |  | 17.2 µM |  | 33.4 µM |  | 12 µM |  | 26.7 µM |  |  |  | 14.8 µM |  | 23.6 µM |  |  |  | 27.7 µM |  | 23.8 µM
N#Cc1ccc(-c2nc3ccc(Cl)cc3[nH]2)cc1 |  | > 100 µM |  |  |  | > 100 µM |  |  |  | > 100 µM |  | > 100 µM |  | > 100 µM |  | > 100 µM |  | > 100 µM |  | > 100 µM
N#CC(C(=O)CCC(=O)Nc1ccc(Cl)cc1)c1ccccc1Cl (stereo not drawn) |  | > 100 µM |  | > 100 µM |  | > 100 µM |  | > 100 µM |  | > 100 µM |  | > 100 µM |  | > 100 µM |  | > 100 µM |  | > 100 µM |  | 
O=C(O)CN(c1ccccc1)S(=O)(=O)c1ccc(Cl)cc1 |  |  |  | > 100 µM |  | > 100 µM |  | > 100 µM |  |  |  | > 100 µM |  | > 100 µM |  | > 100 µM |  |  |  | 
COc1cc2ccnc3c2c(c1OC)CC1CC(O)C(OC)CC31 (stereo not drawn) |  | > 100 µM |  |  |  | > 100 µM |  | > 100 µM |  | > 100 µM |  | > 100 µM |  | > 100 µM |  | > 100 µM |  | > 100 µM |  | > 100 µM
CCCC1C(=O)C(CC)Cc2c(OC)ccc(OC)c21 (stereo not drawn) |  | > 100 µM |  | > 100 µM |  | > 100 µM |  | > 100 µM |  | > 100 µM |  | > 100 µM |  | > 100 µM |  | > 100 µM |  | > 100 µM |  | 
O=C(O)CCSC(=O)Nc1cccc([N+](=O)[O-])c1 |  | > 100 µM |  | 64.8 µM |  | > 100 µM |  | > 100 µM |  |  |  | > 100 µM |  | > 100 µM |  | > 100 µM |  | > 100 µM |  | > 100 µM
O=C1C(Cl)=C(Nc2cccc(O)c2)C(=O)N1c1cccc(Cl)c1 | 22.3 µM | 64.1 µM | 28.8 µM | > 100 µM |  |  | 50.6 µM | > 100 µM | 50.4 µM | > 100 µM | 56.5 µM | > 100 µM | 75.8 µM | > 100 µM | 10.7 µM | 31.8 µM | 68.2 µM | > 100 µM | 27 µM | > 100 µM
C=CCCC(C)N(C(=O)OC(C)(C)C)S(=O)(=O)c1ccc(C)cc1 (stereo not drawn) |  | > 100 µM |  | > 100 µM |  | > 100 µM |  | > 100 µM |  |  |  | > 100 µM |  | > 100 µM |  |  |  | > 100 µM |  | > 100 µM
CC(=O)NC1C(OCc2ccccc2)OC(COC(=O)CCCCCNc2ccc([N+](=O)[O-])c3[nH]c4ccc(O)cc4c(=O)c23)C(O)C1OC(C)C(=O)N[C@@H](C)C(=O)N[C@H](CCC(=O)OCc1ccccc1)C(N)=O (stereo partly drawn) |  | 6.24 µM |  | 9.41 µM |  | > 52.2 µM |  | 15.9 µM |  | > 20 µM |  | 3.25 µM |  |  |  | > 27.2 µM |  |  |  | 0.657 µM
CC(=O)NNC(=S)/N=C/c1c(O)cc(C)oc1=O |  | > 100 µM |  |  |  | > 100 µM |  | > 100 µM |  | > 100 µM |  | > 100 µM |  | > 100 µM |  |  |  | > 100 µM |  | 
NCCCn1c2c(c3cc4c(cc3c1=O)OCO4)C(=O)c1ccccc1-2 | 0.564 µM | 1.27 µM | 3.75 µM | 16.5 µM | 1.48 µM | 2.93 µM | 0.199 µM | 0.721 µM | 0.215 µM | 0.656 µM | 3.61 µM | > 100 µM |  |  | 0.0279 µM | 0.379 µM | 0.757 µM | 2.13 µM |  | 
COc1cc([C@@H]2c3cc4c(cc3[C@@H](NCc3ccc(C#N)cc3)C3COC(=O)[C@@H]32)OCO4)cc(OC)c1O (stereo partly drawn) |  | 5.51 µM |  | 6.6 µM |  | 0.771 µM |  | > 100 µM |  | 8.37 µM |  | 6.32 µM |  | 4.34 µM |  | 7.01 µM |  | 3.78 µM |  | 
C[C@]12CC(C#N)C(=O)C(O)=C1CC[C@@H]1C2CC[C@@]2(C)C1CC[C@@H]2O (stereo partly drawn) |  | > 100 µM |  | > 100 µM |  | > 100 µM |  | > 100 µM |  | > 100 µM |  | > 100 µM |  | 87.3 µM |  | > 100 µM |  | > 100 µM |  | 
CC1Cc2c(N)nc(N3CCOCC3)nc2NC1=O (stereo not drawn) |  | > 100 µM |  |  |  | > 100 µM |  |  |  | > 100 µM |  | > 100 µM |  | > 100 µM |  | > 100 µM |  | > 100 µM |  | 
Cc1ccc(C(=O)CCC2C(=O)CC(C)(C)CC2=O)cc1 |  | > 100 µM |  | > 100 µM |  |  |  | > 100 µM |  | > 100 µM |  | > 100 µM |  | > 100 µM |  | 55.1 µM |  | > 100 µM |  | 65.5 µM
O=C(N/C(=C\c1ccc([N+](=O)[O-])cc1)c1nc2ccc(Cl)cc2[nH]1)c1ccccc1 |  | 52 µM |  | 42.8 µM |  | 48.5 µM |  | 60.8 µM |  | 33.7 µM |  |  |  | 33.5 µM |  | 95.1 µM |  | 61.4 µM |  | 63.3 µM
